Experimental data as given in article PMC9486805, “Identification of a Phage Display-Derived Peptide Interacting with the N-Terminal Region of Factor VII Activating Protease (FSAP) Enables Characterization of Zymogen Activation” (ACS Chemical Biology, 2022).

Experiments:
pro-FSAP in human plasma = molecular target: T1, pro-FSAP in human plasma (Homo sapiens, UniProt Q14520); experiment: Activation of endogenous pro-FSAP in plasma, fluorogenic substrate turnover; type: biochemical
T1 construct: from tissue; host or cells: human hirudin or citrate plasma from healthy donors, diluted 1:12

ΔEGF3 mutant = experiment: Binding of biotinylated peptides to captured ΔEGF3 mutant; design: species or system human; settings: peptide 1 μM; triplicate wells (Fig 2E)
Method: Figure 2 NNKC9/41 interacts with the NTR of pro-FSAP: (A) To determine peptide binding to pro-FSAP, wells were coated with 2 μg/mL pro-FSAP and biotinylated NNKC9/41 and NNK11/189 and their respective scrambled controls were added in different concentration (0–5 μM). Peroxidase-labeled streptavidin was used to detect peptide binding. (B) Same procedure as in (A) except that different proteins were immobilized and biotinylated NNKC9/41 (0–30 μM) was added and its binding was measured. (C) Schematic structure of pro-FSAP with the heavy chain consisting of an NTR, three EGF domains, and a kringle domain, followed by the light chain harboring the serine protease domain (SPD). The binding domains of antibodies used in this study are indicated. (D) Recombinant complete heavy chain (heavy) and truncated heavy chain variants ΔNTR, ΔEGF1, ΔEGF2, ΔEGF3, and ΔKringle were expressed in bacteria and analyzed by sodium dodecyl sulfate poly(acrylamide) gel electrophoresis (SDS-PAGE) followed by Coomassie staining. […] Biotinylated NNKC9/41 or the scrambled control peptide was added at 1 μM and peptide binding was measured with peroxidase-linked streptavidin. […]
Wells were coated with anti-FSAP polyclonal antibodies (5 μg/mL). […] Subsequently, the plates were washed, and bound peptides were detected with peroxidase-coupled streptavidin. […]

immobilized pro-FSAP = experiment: Activation of pro-FSAP captured from plasma on anti-FSAP antibody-coated wells; type: biochemical, human; settings: peptide 0–25 μM in solution, duplicate wells (Fig 5A)
Method: Figure 5 Characteristics of pro-FSAP activation in plasma by NNKC9/41: (A) neutravidin-coated wells were used to capture biotinylated NNKC9/41 or scrambled control peptide (0–25 μM). Hirudin plasma (1:10) was incubated in the wells for 1 h at 37 °C to allow for binding and activation of pro-FSAP. In parallel, wells were coated with rabbit polyclonal anti-FSAP antibody (2 μg/mL) and plasma was added to immobilize FSAP in the presence of solution phase NNKC9/41 or its scrambled control (0–25 μM). Fluorogenic substrate turnover (Ac–Ala–Lys–Nle–Arg–AMC) was monitored. (B) Plasma was incubated with NNKC9/41 and Ser–Ser control (0–50 μM each) in the absence of any antibody or in the presence of MA-FSAP-38C7 or MA-FSAP-32F10 (5 μg/mL) and the FSAP activity was monitored. (C) Plasma was incubated with NNKC9/41 (25 μM) in the presence of MA-FSAP-38C7 or MA-FSAP-32F10 (0–10 μg/mL) and the FSAP activity was monitored. For (A)–(C), results are shown as mean + range of duplicate wells.

pro-FSAP in WT/WT plasma = experiment: Substrate turnover in WT/WT plasma; type: biochemical, human; settings: WT/WT citrate plasma 1:12; 25 μM (Fig 6A)
Method: Figure 6 Pro-FSAP activation and clotting in plasma by NNKC9/41: (A) citrate plasma (1:12 dilution) from donors with WT/WT, WT/MI, and MI/MI genotypes and WT-FSAP-deficient plasma (FSAP-DP) were compared. Substrate turnover was monitored after addition of NNKC9/41 or the Ser–Ser linear peptide (25 μM each). Results are shown as mean + range of duplicate wells. (B) Pooled prothrombin-deficient citrated plasma (1:5 dilution) was recalcified with 10 mM CaCl2 and incubated with NNKC9/41 or scrambled control peptide (0–25 μM each) for 60 min at 37 °C in the presence or absence of the FSAP-inhibitory MA-FSAP-38C7 (5 μg/mL). Initiation of clotting was achieved by adding the tissue factor/phospholipid and prothrombin complex concentrate. Clotting time was measured as diluted prothrombin time (dPT) in seconds. Data are the mean of three independent experiments. The relative dPT in % of the untreated control is presented as mean ± standard error (SE) (*p <0.05, two-way analysis of variance (ANOVA) and Bonferroni post-test).
Human citrate plasma (0.38% w/v) or hirudin plasma (25 μg/mL Lepirudin) was obtained from five healthy donors. […] Hydrolysis of the fluorogenic substrates was measured using a Synergy HI plate reader with excitation at 320 nm and emission at 460 nm at 37 °C for 60 min. The maximal velocity was calculated from the linear part of the progress curve. […]

uPA = experiment: Specificity: uPA; type: biochemical; settings: uPA 20 nM; peptide 0-50 μM; PNAPEP 1344 (Fig S7)
Method: Fig S7. […]
µM). Pro-uPA (100 nM) and uPA (20 nM) with PNAPEP 1344 (250 µM). Factor X (50 […]
Bend, IN, USA) except plasminogen and FSAP, which were isolated in house; and pro-uPA was from Grünenthal (Stolberg, Germany). All chromogenic substrates were from Hyphen Biomed (Neuville Sur Oise, France). Experiments were carried out in TBS with Tween-20 (0.1 % wt/ vol) BSA (0.3% wt/vol) and CaCl2 (2 mM). Absorbance at 405 nm was measured over time and the enzyme activity is depicted was measured in duplicates (mean + or -range) and similar results were obtained in 3

T1 sequence (Q14520 24-560): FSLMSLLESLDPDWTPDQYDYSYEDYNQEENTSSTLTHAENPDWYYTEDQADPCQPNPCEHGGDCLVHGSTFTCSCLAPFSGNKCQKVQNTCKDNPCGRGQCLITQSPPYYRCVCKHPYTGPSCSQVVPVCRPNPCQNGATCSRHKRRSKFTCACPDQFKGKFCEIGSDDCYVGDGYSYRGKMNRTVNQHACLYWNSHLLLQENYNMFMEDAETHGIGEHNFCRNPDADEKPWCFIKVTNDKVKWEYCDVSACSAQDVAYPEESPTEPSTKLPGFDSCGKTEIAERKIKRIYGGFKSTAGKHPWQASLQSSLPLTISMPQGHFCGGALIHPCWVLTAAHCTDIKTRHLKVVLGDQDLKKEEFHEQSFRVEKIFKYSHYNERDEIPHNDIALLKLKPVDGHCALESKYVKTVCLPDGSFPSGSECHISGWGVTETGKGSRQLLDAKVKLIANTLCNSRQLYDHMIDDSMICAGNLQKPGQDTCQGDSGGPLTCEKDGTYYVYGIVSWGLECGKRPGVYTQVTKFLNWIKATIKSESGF

Which “effect in citrate plasma 1:2” value (pro-FSAP in human plasma; citrate plasma 1:2, 10 μM, 3 donors (Fig S5)) does the source give for CRGAMWMYKRC [NNKC9/41] here?
Its value is “completely abolished”.

What about the “pro-FSAP activation in 1:2 diluted plasma vs higher dilution” value (pro-FSAP in human plasma; hirudin and citrate plasma 1:2 (Fig S5)) of the same sequence?
Its value is “lower pro-FSAP activation”.

What about the “peptide binding to ΔEGF3 mutant” value (ΔEGF3 mutant) of the same sequence?
Its value is “higher binding”.

And the “activation of captured pro-FSAP” value (immobilized pro-FSAP)?
The value was “found to activate pro-FSAP”.

And the substrate turnover (pro-FSAP in WT/WT plasma)?
Its substrate turnover is “high substrate turnover”.

And the effect on activity (uPA)?
Its effect on activity is “did not influence the activity”.
